Reference: PMC7899551, “Phase 1 study of Z-endoxifen in patients with advanced gynecologic, desmoid, and hormone receptor-positive solid tumors” (Oncotarget, 2021)
Where “and” joins values, the source holds several entries; their conditions need not be identical. Equal entries are not always repeated. Where two headings read alike, the source gives them in different places.

Test: Plasma pharmacokinetics of Z-endoxifen (HPLC assay, non-compartmental analysis)
Assay type: in vivo, human
Description: This was an open-label trial of Z-endoxifen in patients with advanced solid tumors (https://clinicaltrials.gov/ identifier: NCT01273168). Z-endoxifen-HCl was supplied by the Pharmaceutical Management Branch, National Cancer Institute, as 20 and 40 mg capsules; agent was administered orally once daily on a continuous schedule in 28-day cycles with a starting dose of 20 mg/day taken either 1 hour before or 2 hours after meals. Dose escalation followed a traditional 3+3 design in which patients were dose-escalated to the next dose level (DL) in cohorts of 3 patients until dose-limiting toxicity (DLT) was observed. DLT was defined as an adverse event that occurred during cycle 1, was thought to be related to study drug administration, and met one of the following criteria: grade ≥ 3 non-hematologic toxicities (except diarrhea, nausea and vomiting, alopecia, rising creatinine or electrolyte toxicities that resolved within 24 hours, or intolerable estrogen withdrawal symptoms) or grade ≥ 3 hematologic toxicities (except neutropenia lasting less than 5 days, lymphopenia, or anemia). Eight dose levels (DL1-8) were examined: 20, 40, 60, 100, 140, 200, 280, and 360 mg, respectively. Two patients at DL8 received the free base form of Z-endoxifen on day 1 rather than the hydrochloride salt to assess the pharmacokinetics of that formulation.
A 3-mL blood sample was collected in a K2 EDTA tube on day 1 of cycle 1 before drug administration and at the following times post-first dose: 0.5, 1, 2, 3, 4, 6, 8, and 24 hours. Samples were collected at the same time points on day 28 of cycle 1 for DL1-6 until a protocol amendment eliminated the requirement for these samples at the higher dose levels. Samples were wrapped in aluminum foil after collection to protect from light exposure. A 10-mL aliquot of urine was collected before agent administration on cycle 1 day 1, for 24 hours after dosing on day 1, and before drug administration on cycle 2 day 1; samples were refrigerated prior to analysis.
Plasma and urine concentrations of Z- and E-endoxifen were measured using a validated, post-column fluorescence derivatization HPLC assay. Non-compartmental pharmacokinetic parameters were calculated using WinNonlin version 7.0 (Pharsight Corp., Mountainview, CA, USA). A 2 μM Cmax target was established for day 28 plasma concentration. The amount of Z-endoxifen excreted in urine was measured over a 24-hour collection period.

[1] = DL1 20 mg oral, day 1, individual patients, listed as Z-endoxifen HCl
[2] = DL1 20 mg/day oral, day 28, individual patients, listed as Z-endoxifen HCl
[3] = DL2 40 mg oral, day 1, individual patients, listed as Z-endoxifen HCl
[4] = DL2 40 mg/day oral, day 28, individual patients, listed as Z-endoxifen HCl
[5] = DL3 60 mg oral, day 1, individual patients, listed as Z-endoxifen HCl
[6] = DL3 60 mg/day oral, day 28, individual patients, listed as Z-endoxifen HCl
[7] = DL4 100 mg oral, day 1, individual patients, listed as Z-endoxifen HCl
[8] = DL5 140 mg oral, day 1, individual patients, listed as Z-endoxifen HCl
[9] = DL5 140 mg/day oral, day 28, individual patients, listed as Z-endoxifen HCl
[10] = DL6 200 mg oral, day 1, individual patients, listed as Z-endoxifen HCl
[11] = DL6 200 mg/day oral, day 28, individual patients, listed as Z-endoxifen HCl
[12] = DL7 280 mg oral, day 1, individual patients, listed as Z-endoxifen HCl
[13] = DL8 360 mg oral, day 1, individual patients, listed as Z-endoxifen HCl

CC/C(=C(\c1ccc(O)cc1)c1ccc(OCCNC)cc1)c1ccccc1 [Z-endoxifen]
AUC(0-24h) [1]: 1.055 µg·h/mL and 1.169 µg·h/mL | C24h [1]: 0.0326 µg/mL and 0.0327 µg/mL | Cmax [1]: 0.0612 µg/mL and 0.0677 µg/mL | AUC(0-24h) [2]: 4.469 µg·h/mL and 5.313 µg·h/mL | Adjusted Half-Life [2]: 61.8 h and 67.0 h | C24h [2]: 0.0488 µg/mL and 0.1396 µg/mL and 0.2066 µg/mL | Cmax [2]: 0.2837 µg/mL and 0.3741 µg/mL | Tmax [2]: 0.0 h | AUC(0-24h) [3]: 1.715 µg·h/mL and 1.336 µg·h/mL and 1.764 µg·h/mL and 2.162 µg·h/mL | C24h [3]: 0.0436 µg/mL and 0.0549 µg/mL and 0.0337 µg/mL and 0.0552 µg/mL and 0.075 µg/mL | Cmax [3]: 0.1211 µg/mL and 0.0938 µg/mL and 0.1023 µg/mL and 0.1603 µg/mL | AUC(0-24h) [4]: 3.871 µg·h/mL and 4.832 µg·h/mL | Adjusted Half-Life [4]: 36.6 h | C24h [4]: 0.1118 µg/mL and 0.1945 µg/mL | Cmax [4]: 0.2318 µg/mL and 0.2207 µg/mL | Tmax [4]: 3.0 h | Adjusted Half-Life, Mean (DL2 40 mg/day oral, day 28, mean): 40.4 h | AUC(0-24h) [5]: 1.953 µg·h/mL and 2.836 µg·h/mL | C24h [5]: 0.0722 µg/mL and 0.0862 µg/mL | Cmax [5]: 0.109 µg/mL and 0.166 µg/mL | Tmax [5]: 24.0 h and 6.1 h | AUC(0-24h) [6]: 3.432 µg·h/mL and 9.961 µg·h/mL and 10.846 µg·h/mL | Adjusted Half-Life [6]: 26.0 h and 76.2 h and 54.9 h | C24h [6]: 0.1694 µg/mL and 0.5212 µg/mL and 0.3456 µg/mL | Cmax [6]: 0.1996 µg/mL and 0.5212 µg/mL and 0.5311 µg/mL | Tmax [6]: 0.5 h and 24.0 h | Adjusted Half-Life, Mean (DL3 60 mg/day oral, day 28, mean): 52.4 h | AUC(0-24h) [7]: 4.834 µg·h/mL and 5.511 µg·h/mL | C24h [7]: 0.157 µg/mL and 0.175 µg/mL | Cmax [7]: 0.301 µg/mL and 0.324 µg/mL | Cmax (DL4 100 mg/day oral, day 28, individual patients, listed as Z-endoxifen HCl): 0.719 µg/mL | AUC(0-24h) [8]: 7.2 µg·h/mL and 14.65 µg·h/mL and 7.425 µg·h/mL | C24h [8]: 0.209 µg/mL and 0.509 µg/mL and 0.216 µg/mL | Cmax [8]: 0.38 µg/mL and 0.957 µg/mL and 0.494 µg/mL | AUC(0-24h) [9]: 16.591 µg·h/mL | Adjusted Half-Life [9]: 28.1 h | C24h [9]: 0.528 µg/mL | Cmax [9]: 1.485 µg/mL and 0.881 µg/mL | Tmax [9]: 3.0 h | AUC(0-24h) [10]: 12.52 µg·h/mL and 8.804 µg·h/mL | C24h [10]: 0.457 µg/mL and 0.271 µg/mL | Cmax [10]: 0.299 µg/mL and 0.76 µg/mL and 0.492 µg/mL | AUC(0-24h) [11]: 16.69 µg·h/mL and 52.925 µg·h/mL and 22.641 µg·h/mL | Adjusted Half-Life [11]: 61.6 h and 33.8 h | C24h [11]: 0.787 µg/mL and 1.814 µg/mL and 0.606 µg/mL | Cmax [11]: 0.984 µg/mL and 2.574 µg/mL and 1.364 µg/mL | mean C24 h relative to the 5.9 ng/mL threshold associated with clinical benefit on tamoxifen (DL6, Day 28): more than 180 fold | AUC(0-24h) [12]: 15.935 µg·h/mL and 10.46 µg·h/mL and 11.355 µg·h/mL and 13.153 µg·h/mL and 13.081 µg·h/mL and 24.217 µg·h/mL and 16.532 µg·h/mL | C24h [12]: 0.485 µg/mL and 0.345 µg/mL and 0.384 µg/mL and 0.467 µg/mL and 0.337 µg/mL and 0.687 µg/mL and 0.574 µg/mL | Cmax [12]: 0.825 µg/mL and 0.715 µg/mL and 0.887 µg/mL and 0.796 µg/mL and 1.395 µg/mL and 1.007 µg/mL | Tmax (DL8 360 mg oral, day 1, individual patients): 3.0 h | AUC(0-24h) [13]: 32.079 µg·h/mL and 21.926 µg·h/mL and 23.576 µg·h/mL and 20.747 µg·h/mL and 22.52 µg·h/mL and 9.274 µg·h/mL and 13.704 µg·h/mL | C24h [13]: 1.19 µg/mL and 0.722 µg/mL and 0.653 µg/mL and 0.801 µg/mL and 0.658 µg/mL and 0.213 µg/mL and 0.493 µg/mL | Cmax [13]: 1.841 µg/mL and 1.352 µg/mL and 1.374 µg/mL and 1.432 µg/mL and 1.437 µg/mL and 0.78 µg/mL and 0.948 µg/mL | Tmax [13]: 3.0 h | Cmax, Mean (HCl salt, 360 mg oral, day 2 (after free base on day 1), mean of patients 35 and 36): 2.36 µg/mL | AUC(0–24 h) (HCl salt, 360 mg oral, day 2 (after free base on day 1), patients 35 and 36 individually, listed as Z-endoxifen HCl): 23.709 µg·h/mL and 59.421 µg·h/mL | plasma concentration achieved by all patients (all dose levels): > 0.00597 µg/mL | AUC(0–24h) dependence on dose (day 1, DL1-8): linear increase with dose | concentration at 24 h (human, plasma, oral, 20 mg, DL1, calculated from C24h in ng/mL, read-out: Plasma concentration 24 hours after the first dose): 0.067 µM | concentration at 28 day (human, plasma, oral, 20 mg, DL1, read-out: day 28 trough concentration, range): 0.0488 to 0.207 µg/mL | concentration at 28 day (human, plasma, oral, 20 mg/day, DL1 (20 mg/day), day 28, read-out: average plasma concentration): 0.353 µM | concentration at 28 day (human, plasma, oral, 360 mg, DL8, if accumulation similar to lower dose levels, read-out: estimated day 28 concentration): 1220 ng/mL to 2970 ng/mL and 3.3 µM to 7.9 µM | concentration at 24 h (human, plasma, oral, 360 mg, DL8, calculated from C24h in ng/mL, read-out: Plasma concentration 24 hours after the first dose): 1.81 µM | half-life (human, plasma, oral, range over dose levels, read-out: elimination half-life (t½)): 30.6 to 55.9 h | AUC(0-t) (human, plasma, po, 20 mg, DL1 20 mg oral, day 1, individual patients, read-out: AUC(0-24h)): 1.03 µg·h/mL | concentration at 24 h (human, plasma, po, 20 mg, DL1 20 mg oral, day 1, individual patients, read-out: C24h): 0.0252 µg/mL | Cmax (human, plasma, po, 20 mg, DL1 20 mg oral, day 1, individual patients, read-out: Cmax): 0.0769 µg/mL | Tmax (human, plasma, po, 20 mg, DL1 20 mg oral, day 1, individual patients, read-out: Tmax): 3 h | AUC(0-t) (human, plasma, po, 20 mg, DL1 20 mg oral, day 1, mean, read-out: AUC(0-24h), Mean): 1.08 µg·h/mL | concentration at 24 h (human, plasma, po, 20 mg, DL1 20 mg oral, day 1, mean, read-out: C24h, Mean): 0.0302 µg/mL | Cmax (human, plasma, po, 20 mg, DL1 20 mg oral, day 1, mean, read-out: Cmax, Mean): 0.0686 µg/mL | Tmax (human, plasma, po, 20 mg, DL1 20 mg oral, day 1, mean, read-out: Tmax, Mean): 3.7 h | AUC(0-t) (human, plasma, po, 20 mg/day, DL1 20 mg/day oral, day 28, individual patients, read-out: AUC(0-24h)): 2.96 µg·h/mL | half-life (human, plasma, po, 20 mg/day, DL1 20 mg/day oral, day 28, individual patients, read-out: Adjusted Half-Life (converted)): 38.9 h | Cmax (human, plasma, po, 20 mg/day, DL1 20 mg/day oral, day 28, individual patients, read-out: Cmax): 0.201 µg/mL | AUC(0-t) (human, plasma, po, 20 mg/day, DL1 20 mg/day oral, day 28, mean, read-out: AUC(0-24h), Mean): 4.25 µg·h/mL | half-life (human, plasma, po, 20 mg/day, DL1 20 mg/day oral, day 28, mean, read-out: Adjusted Half-Life, Mean (converted)): 55.9 h | concentration at 24 h (human, plasma, po, 20 mg/day, DL1 20 mg/day oral, day 28, mean, read-out: C24h, Mean): 0.132 µg/mL
